Test results published in patent US9079905B2, “Compounds for the treatment of CNS disorders” (Boehringer Ingelheim International GmbH, priority 2008, dated 2015).
pIC50: −log10 of the molar value. Values belong to the molecule of their own block, whether it stands above or below them.

Molecular target: T1, human PDE9A2 (Homo sapiens, UniProt O76083)
T1 construct: made in house; host or cells: Sf9 insect cells (infected; crude lysate used as enzyme source)
Test: PDE9A2 enzymatic activity assay (scintillation proximity assay)
Assay type: biochemical
Settings: for pIC50: specific IC50 value is within the given range; for inhibition at 10 µM / % Inhibition of PDE 9A2: at 10 μM
Procedure: The PDE9A2 enzymatic activity assay was run as scintillation proximity assay (SPA), in general according to the protocol of the manufacturer (Amersham Biosciences, product number: TRKQ 7100).
As enzyme source, lysate (PBS with 1% Triton X-100 supplemented with protease inhibitors, cell debris removed by centrifugation at 13.000 rpm for 30 min) of SF 9 cell expressing the human PDE9A2 was used. The total protein amount included in the assay varied upon infection and production efficacy of the SF9 cells and lay in the range of 0.1-100 ng.
In general, the assay conditions were as follows: • total assay volume: 40 microliter • protein amount: 0.1-50 ng • substrate concentration (cGMP): 20 nanomolar; ˜1 mCi/1 • incubation time: 60 min at room temperature • final DMSO concentration: 0.2-1
The assays were run in 384-well format. The test reagents as well as the enzyme and the substrate were diluted in assay buffer. The assay buffer contained 50 mM Tris, 8.3 mM MgCl2, 1.7 mM EGTA, 0.1% BSA, 0.05% Tween 20; the pH of assay buffer was adjusted to 7.5. The reaction was stopped by applying a PDE9 specific inhibitor (e.g. compounds according to WO04099210 or WO04099211) in excess.
The activity of the positive control (minus the negative control=background) is set to 100% and activity in the presence of test compound is expressed relative to these 100%. Within this setting, an inhibition above 100% might be possible due to the nature of the variation of the positive control within the assay. In the following inhibition of PDE 9A2 is presented for a concentration at 10 μM, if not indicated otherwise.
IC50 can be calculated with GraphPadPrism or other suited software setting the positive control as 100 and the negative control as 0. For calculation of IC50 dilutions of the test compounds (substrates) are to be selected and tested following the aforementioned protocol.

[1] = read-out: % Inhibition of PDE 9A2

T1 sequence (O76083 1-533 isoform O76083-2): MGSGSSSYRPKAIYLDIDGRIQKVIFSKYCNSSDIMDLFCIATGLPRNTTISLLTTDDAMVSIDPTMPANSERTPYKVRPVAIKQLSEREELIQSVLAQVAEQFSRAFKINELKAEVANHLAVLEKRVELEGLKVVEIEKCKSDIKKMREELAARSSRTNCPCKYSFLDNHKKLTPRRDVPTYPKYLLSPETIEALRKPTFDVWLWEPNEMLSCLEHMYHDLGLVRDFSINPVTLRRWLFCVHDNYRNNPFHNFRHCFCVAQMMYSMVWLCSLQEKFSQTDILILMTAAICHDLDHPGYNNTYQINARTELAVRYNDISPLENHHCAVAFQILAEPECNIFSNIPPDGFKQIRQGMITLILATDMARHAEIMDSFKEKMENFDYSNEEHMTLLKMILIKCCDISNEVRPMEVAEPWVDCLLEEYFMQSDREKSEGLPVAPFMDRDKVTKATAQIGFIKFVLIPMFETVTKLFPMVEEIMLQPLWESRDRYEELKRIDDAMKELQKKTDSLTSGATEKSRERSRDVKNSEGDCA

SMILES: O=c1[nH]c(Cc2ccccn2)nc2c1cnn2C1CCCC(c2ccccc2)C1 (mixture of isomers) [Example 14]
inhibition at 10 µM [1]: 94%
pIC50: 5.82 to 7.00

SMILES: O=c1[nH]c(CC2CC2)nc2c1cnn2C1CCCC(c2ccccc2)C1 (mixture of isomers) [Example 15]
inhibition at 10 µM [1]: 93%
pIC50: 5.82 to 7.00

SMILES: CC(C)(C)OC(=O)NC1CCCC(n2ncc3c(=O)[nH]c(CC4CCCC4)nc32)C1 (mixture of isomers) [Example 16]
inhibition at 10 µM [1]: 104%
pIC50: 7.00 to 9.00

SMILES: CCOC(=O)NC1CCCC(n2ncc3c(=O)[nH]c(CC4CCCC4)nc32)C1 (mixture of isomers) [Example 17]
inhibition at 10 µM [1]: 103%
pIC50: 7.00 to 9.00

SMILES: CCOC(=O)NC1CCCC(n2ncc3c(=O)[nH]c(Cc4ccccc4OC(F)(F)F)nc32)C1 (mixture of isomers) [Example 19]
inhibition at 10 µM [1]: 100%
pIC50: 7.00 to 9.00

SMILES: CC(=O)NC1CCCC(n2ncc3c(=O)[nH]c(Cc4ccccc4OC(F)(F)F)nc32)C1 (mixture of isomers) [Example 49]
inhibition at 10 µM [1]: 99%
pIC50: 7.00 to 9.00

SMILES: O=C(NC1CCCC(n2ncc3c(=O)[nH]c(Cc4ccccc4OC(F)(F)F)nc32)C1)c1ccccc1 (mixture of isomers) [Example 85]
inhibition at 10 µM [1]: 94%
pIC50: 5.82 to 7.00

SMILES: COC1CCCCC1n1ncc2c(=O)[nH]c(Cc3ccccn3)nc21 (racemic) [Example 12]
inhibition at 10 µM [1]: 83%
pIC50: 5.82 to 7.00

SMILES: CCCC1OCCCC1Cc1nc2c(cnn2C2CCC(F)(F)CC2)c(=O)[nH]1 (racemic) [Example 24]
inhibition at 10 µM [1]: 98%
pIC50: 5.82 to 7.00

SMILES: O=c1[nH]c(C(F)c2ccccc2)nc2c1cnn2C1CCC(F)(F)CC1 (racemic) [Example 25]
inhibition at 10 µM [1]: 103%
pIC50: 7.00 to 9.00

SMILES: CCC(Cc1nc2c(cnn2C2CCC(F)(F)CC2)c(=O)[nH]1)C(F)(F)F (racemic) [Example 27]
inhibition at 10 µM [1]: 104%
pIC50: 7.00 to 9.00

SMILES: CC(Cc1nc2c(cnn2C2CCC(F)(F)CC2)c(=O)[nH]1)C(F)(F)F (racemic) [Example 30]
inhibition at 10 µM [1]: 98%
pIC50: 7.00 to 9.00

SMILES: O=C(NC1CCCC(n2ncc3c(=O)[nH]c(CC4CCCC4)nc32)C1)c1ccccc1 (racemic) [Example 51]
inhibition at 10 µM [1]: 98%
pIC50: 5.82 to 7.00

SMILES: CC1(C)CC(Cc2nc3c(cnn3C3CCC(F)(F)CC3)c(=O)[nH]2)CO1 (racemic) [Example 52]
inhibition at 10 µM [1]: 98%
pIC50: 7.00 to 9.00

SMILES: O=c1[nH]c(C(F)c2ccccc2-c2ccncc2)nc2c1cnn2C1CCC(F)(F)CC1 (racemic) [Example 72-10]
inhibition at 3.3 µM (at 3.3 μM, read-out: % Inhibition of PDE 9A2): 52%
pIC50: 5.82 to 7.00

SMILES: Cn1cc(-c2ccccc2C(F)c2nc3c(cnn3C3CCC(F)(F)CC3)c(=O)[nH]2)cn1 (racemic) [Example 72-11]
inhibition at 10 µM [1]: 84%
pIC50: 7.00 to 9.00

SMILES: NC1CCCC(n2ncc3c(=O)[nH]c(CC4CCCC4)nc32)C1 (racemic) [Example 86]
inhibition at 10 µM [1]: 77%
pIC50: 5.82 to 7.00

SMILES: NC1CCCC(n2ncc3c(=O)[nH]c(Cc4ccccc4OC(F)(F)F)nc32)C1 (racemic) [Example 87]
inhibition at 10 µM [1]: 81%
pIC50: 5.82 to 7.00

SMILES: CC(Cc1nc2c(cnn2C2CCC(F)(F)CC2)c(=O)[nH]1)C(F)(F)F (single isomer, unassigned) [Example 47]
inhibition at 10 µM [1]: 98%
pIC50: 7.00 to 9.00

SMILES: CC(Cc1nc2c(cnn2C2CCC(F)(F)CC2)c(=O)[nH]1)C(F)(F)F (single isomer, unassigned) [Example 48]
% Inhibition of PDE 9A2: 96%
pIC50: 5.82 to 7.00

SMILES: CC1(C)CC(Cc2nc3c(cnn3C3CCC(F)(F)CC3)c(=O)[nH]2)CO1 (single isomer, unassigned) [Example 77]
inhibition at 10 µM [1]: 100%
pIC50: 7.00 to 9.00

SMILES: O=c1[nH]c(C(F)c2ccccc2-n2cccn2)nc2c1cnn2C1CCC(F)(F)CC1 (single isomer, unassigned) [Example 92]
inhibition at 10 µM [1]: 93%
pIC50: 5.82 to 7.00

SMILES: O=c1[nH]c(CC2CC2)nc2c1cnn2C1CCC(F)(F)CC1 [Example 2]
inhibition at 10 µM [1]: 101%
pIC50: 7.00 to 9.00

SMILES: O=c1[nH]c(Cc2cccc(Cl)c2)nc2c1cnn2C1CCC(F)(F)CC1 [Example 5]
inhibition at 10 µM [1]: 98%
pIC50: 7.00 to 9.00

SMILES: O=c1[nH]c(Cc2cccc(C(F)(F)F)c2)nc2c1cnn2C1CCC(F)(F)CC1 [Example 6]
inhibition at 10 µM [1]: 98%
pIC50: 7.00 to 9.00

SMILES: CCCCc1nc2c(cnn2C2CCC(F)(F)CC2)c(=O)[nH]1 [Example 8]
inhibition at 10 µM [1]: 98%
pIC50: 7.00 to 9.00

SMILES: CC(C)Cc1nc2c(cnn2C2CCC(F)(F)CC2)c(=O)[nH]1 [Example 9]
inhibition at 10 µM [1]: 97%
pIC50: 7.00 to 9.00

SMILES: CC1(C)CC(n2ncc3c(=O)[nH]c(CC4CC4)nc32)CC(C)(C)C1 [Example 13]
inhibition at 10 µM [1]: 98%
pIC50: 5.82 to 7.00

SMILES: O=c1[nH]c(CC2CCCC2)nc2c1cnn2C1CCC(F)(F)CC1 [Example 20]
inhibition at 10 µM [1]: 104%
pIC50: 7.00 to 9.00

SMILES: CCC(CC)Cc1nc2c(cnn2C2CCC(F)(F)CC2)c(=O)[nH]1 [Example 21]
inhibition at 10 µM [1]: 103%
pIC50: 7.00 to 9.00

SMILES: CCCc1nc2c(cnn2C2CCC(F)(F)CC2)c(=O)[nH]1 [Example 22]
inhibition at 10 µM [1]: 104%
pIC50: 7.00 to 9.00

SMILES: O=c1[nH]c(CC2CCOC2)nc2c1cnn2C1CCC(F)(F)CC1 (stereo not drawn) [Example 23]
inhibition at 10 µM [1]: 100%
pIC50: 5.82 to 7.00

SMILES: N#Cc1ccccc1Cc1nc2c(cnn2C2CCC(F)(F)CC2)c(=O)[nH]1 [Example 31]
inhibition at 10 µM [1]: 99%
pIC50: 7.00 to 9.00

SMILES: O=c1[nH]c(CCCC(F)(F)F)nc2c1cnn2C1CCC(F)(F)CC1 [Example 32]
inhibition at 10 µM [1]: 98%
pIC50: 7.00 to 9.00

SMILES: O=c1[nH]c(Cc2ccccc2Br)nc2c1cnn2C1CCC(F)(F)CC1 [Example 33]
inhibition at 10 µM [1]: 98%
pIC50: 7.00 to 9.00

SMILES: O=c1[nH]c(CC2CCC(F)(F)CC2)nc2c1cnn2C1CCC(F)(F)CC1 [Example 34]
inhibition at 10 µM [1]: 96%
pIC50: 5.82 to 7.00

Results, then the molecule that gave them:

inhibition at 10 µM [1]: 102%
pIC50: 7.00 to 9.00
SMILES: O=c1[nH]c(CC2CCCC2)nc2c1cnn2C1CCCC1O (mixture of isomers) [Example 10]

inhibition at 10 µM [1]: 100%
pIC50: 7.00 to 9.00
SMILES: CC(C)(C)OC(=O)NC1CCCC(n2ncc3c(=O)[nH]c(Cc4ccccc4OC(F)(F)F)nc32)C1 (mixture of isomers) [Example 18]

inhibition at 10 µM [1]: 89%
pIC50: 5.82 to 7.00
SMILES: COC1CCCCC1n1ncc2c(=O)[nH]c(CC3CC3)nc21 (racemic) [Example 11]

inhibition at 10 µM [1]: 91%
pIC50: 5.82 to 7.00
SMILES: CC1(C)CC(Cc2nc3c(cnn3C3CCC(F)(F)CC3)c(=O)[nH]2)C(=O)O1 (racemic) [Example 28]

inhibition at 10 µM [1]: 92%
pIC50: 5.82 to 7.00
SMILES: O=c1[nH]c(C(F)c2ccccc2Br)nc2c1cnn2C1CCC(F)(F)CC1 (racemic) [Example 48-2]

inhibition at 10 µM [1]: 93%
pIC50: 5.82 to 7.00
SMILES: CC(Cc1nc2c(cnn2C2CCC(F)(F)CC2)c(=O)[nH]1)C(F)F (racemic) [Example 48-5]

inhibition at 10 µM [1]: 87%
pIC50: 5.82 to 7.00
SMILES: C[C@@H]1CC(Cc2nc3c(cnn3C3CCC(F)(F)CC3)c(=O)[nH]2)C(=O)N1C (mixture of isomers) [Example 48-6]

inhibition at 10 µM [1]: 95%
pIC50: 5.82 to 7.00
SMILES: CC(=O)NC1CCCC(n2ncc3c(=O)[nH]c(CC4CCCC4)nc32)C1 (racemic) [Example 50]

inhibition at 10 µM [1]: 93%
pIC50: 5.82 to 7.00
SMILES: O=c1[nH]c(C(F)c2ccccc2-n2cccn2)nc2c1cnn2C1CCC(F)(F)CC1 (racemic) [Example 88]

inhibition at 10 µM [1]: 100%
pIC50: 7.00 to 9.00
SMILES: CCC(Cc1nc2c(cnn2C2CCC(F)(F)CC2)c(=O)[nH]1)C(F)(F)F (single isomer, unassigned) [Example 101]

% Inhibition of PDE 9A2: 96%
pIC50: 5.82 to 7.00
SMILES: CCC(Cc1nc2c(cnn2C2CCC(F)(F)CC2)c(=O)[nH]1)C(F)(F)F (single isomer, unassigned) [Example 102]

inhibition at 10 µM [1]: 98%
pIC50: 7.00 to 9.00
SMILES: O=c1[nH]c(Cc2ccccn2)nc2c1cnn2C1CCC(F)(F)CC1 [Example 1]

inhibition at 10 µM [1]: 94%
pIC50: 7.00 to 9.00
SMILES: O=c1[nH]c(Cc2ccccc2OC(F)(F)F)nc2c1cnn2C1CCC(F)(F)CC1 [Example 3]

inhibition at 10 µM [1]: 100%
pIC50: 7.00 to 9.00
SMILES: O=c1[nH]c(Cc2ccccc2)nc2c1cnn2C1CCC(F)(F)CC1 [Example 4]

inhibition at 10 µM [1]: 96%
pIC50: 7.00 to 9.00
SMILES: O=c1[nH]c(Cc2cc(F)cc(F)c2)nc2c1cnn2C1CCC(F)(F)CC1 [Example 7]

inhibition at 10 µM [1]: 100%
pIC50: 7.00 to 9.00
SMILES: COc1ccc(Cc2nc3c(cnn3C3CCC(F)(F)CC3)c(=O)[nH]2)cc1 [Example 26]

inhibition at 10 µM [1]: 94%
pIC50: 7.00 to 9.00
SMILES: Cc1cccnc1Cc1nc2c(cnn2C2CCC(F)(F)CC2)c(=O)[nH]1 [Example 35]

inhibition at 10 µM [1]: 99%
pIC50: 7.00 to 9.00
SMILES: O=c1[nH]c(Cc2ccccc2I)nc2c1cnn2C1CCC(F)(F)CC1 [Example 36]
